# Reference: patent publication US10064873B2, “Compounds and compositions for treating HIV with derivatives of Betulin” (GlaxoSmithKline LLC, priority 2011, dated 2018)
# pEC50: −log10 of the molar value.
# Test system: HIV NL4-3 wt
# Test: MT4 antiviral assay, NL4-3 strain wild type
# Type: cell-based, HIV-1
# Conditions: Human immunodeficiency virus 1, NL43, MT4, read-out: EC50 NL4-3 wt (nM)
row,Structure (SMILES),EC50
1,"CC(C)C1=C2[C@H]3CC[C@@H]4[C@@]5(C)CC[C@H](OC(=O)CC(C)(C)C(=O)O)C(C)(C)[C@@H]5CC[C@@]4(C)[C@]3(C)CC[C@@]2([C@H](CN(CCN(C)C)Cc2ccc(Cl)cc2)OC(=O)CC(C)(C)C(=O)O)CC1=O [Example 2, 4-((R)-1-((3aR,5aR,5bR,7aR,9S,11aR,11bR,13aS)-9-((3-Carboxy-3-methylbutanoyl)oxy)-1-isopropyl-5a,5b,8,8,11a-pentamethyl-2-oxo-3,3a,4,5,5a,5b,6,7,7a,8,9,10,11,11a,11b,12,13,13a-octadecahydro-2H-cyclopenta[a]chrysen-3a-yl)-2-((4-chlorobenzyl)(2-(dimethylamino)ethyl)amino)ethoxy)-2,2-dimethyl-4-oxobutanoic acid]",5.2 nM
2,"CC(C)C1=C2[C@H]3CC[C@@H]4[C@@]5(C)CC[C@H](OC(=O)CC(C)(C)C(=O)O)C(C)(C)[C@@H]5CC[C@@]4(C)[C@]3(C)CC[C@@]2([C@@H](CN(CCN(C)C)Cc2ccc(Cl)cc2)OC(=O)CC(C)(C)C(=O)O)CC1=O [Example 4, 4-((S)-1-((3aR,5aR,5bR,7aR,9S,11aR,11bR,13aS)-9-((3-Carboxy-3-methylbutanoyl)oxy)-1-isopropyl-5a,5b,8,8,11a-pentamethyl-2-oxo-3,3a,4,5,5a,5b,6,7,7a,8,9,10,11,11a,11b,12,13,13a-octadecahydro-2H-cyclopenta[a]chrysen-3a-yl)-2-((4-chlorobenzyl)(2-(dimethylamino)ethyl)amino)ethoxy)-2,2-dimethyl-4-oxobutanoic acid]",10.1 nM
3,"CC(C)C1=C2[C@H]3CC[C@@H]4[C@@]5(C)CC[C@H](OC(=O)CC(C)(C)C(=O)O)C(C)(C)[C@@H]5CC[C@@]4(C)[C@]3(C)CC[C@@]2(CCNCc2ccccc2)CC1=O [Example 6, 4-(((3aR,5aR,5bR,7aR,9S,11aR,11bR,13aS)-3a-(2-(Benzylamino)ethyl)-1-isopropyl-5a,5b,8,8,11a-pentamethyl-2-oxo-3,3a,4,5,5a,5b,6,7,7a,8,9,10,11,11a,11b,12,13,13a-octadecahydro-2H-cyclopenta[a]chrysen-9-yl)oxy)-2,2-dimethyl-4-oxobutanoic acid]",0.5 nM
4,"CC(C)C1=C2[C@H]3CC[C@@H]4[C@@]5(C)CC[C@H](OC(=O)CC(C)(C)C(=O)O)C(C)(C)[C@@H]5CC[C@@]4(C)[C@]3(C)CC[C@@]2(CCNCc2cccc(Cl)c2)CC1=O [Example 7, 4-(((3aR,5aR,5bR,7aR,9S,11aR,11bR,13aS)-3a-(2-((3-Chlorobenzyl)amino)ethyl)-1-isopropyl-5a,5b,8,8,11a-pentamethyl-2-oxo-3,3a,4,5,5a,5b,6,7,7a,8,9,10,11,11a,11b,12,13,13a-octadecahydro-2H-cyclopenta[a]chrysen-9-yl)oxy)-2,2-dimethyl-4-oxobutanoic acid]",6.1 nM

# Same assay, conditions: Human immunodeficiency virus 1, NL43; MT4 cells; read-out: EC50 NL4-3 wt
row,Structure (SMILES),pEC50
1,"CC(C)C1=C2[C@H]3CC[C@@H]4[C@@]5(C)CC[C@H](OC(=O)CC(C)(C)C(=O)O)C(C)(C)[C@@H]5CC[C@@]4(C)[C@]3(C)CC[C@@]2([C@@H](O)CN2CCN(C)CC2)CC1 (racemic) [Example 65, 4-(((3aS,5aR,5bR,7aR,9S,11aR,11bR,13aS)-3a-((R)-1-hydroxy-2-(4-methylpiperazin-1-yl)ethyl)-1-isopropyl-5a,5b,8,8,11a-pentamethyl-3,3a,4,5,5a,5b,6,7,7a,8,9,10,11,11a,11b,12,13,13a-octadecahydro-2H-cyclopenta[a]chrysen-9-yl)oxy)-2,2-dimethyl-4-oxobutanoic acid]",7.08
2,CC(=O)N(Cc1cccc(Cl)c1)C[C@H](O)[C@@]12CC[C@]3(C)[C@H](CC[C@@H]4[C@@]5(C)CC[C@H](OC(=O)CC(C)(C)C(=O)O)C(C)(C)[C@@H]5CC[C@]43C)C1=C(C(C)C)C(=O)C2 [Compound 46],7.95
3,CC(C)C1=C2[C@H]3CC[C@@H]4[C@@]5(C)CC[C@H](OC(=O)CC(C)(C)C(=O)O)C(C)(C)[C@@H]5CC[C@@]4(C)[C@]3(C)CC[C@@]2([C@H](O)CN(CCN(C)C)Cc2ccccc2Cl)CC1=O [Compound 51],8.46
4,"CC(C)C1=C2[C@H]3CC[C@@H]4[C@@]5(C)CC[C@H](OC(=O)CC(C)(C)C(=O)O)C(C)(C)[C@@H]5CC[C@@]4(C)[C@]3(C)CC[C@@]2([C@H](CNCc2ccc(Cl)cc2)OC(=O)CC(C)(C)C(=O)O)CC1=O [Example 1, 4-((R)-1-((3aR,5aR,5bR,7aR,9S,11aR,11bR,13aS)-9-((3-carboxy-3-methylbutanoyl)oxy)-1-isopropyl-5a,5b,8,8,11a-pentamethyl-2-oxo-3,3a,4,5,5a,5b,6,7,7a,8,9,10,11,11a,11b,12,13,13a-octadecahydro-2H-cyclopenta[a]chrysen-3a-yl)-2-((4-chlorobenzyl)amino)ethoxy)-2,2-dimethyl-4-oxobutanoic acid]",7.39
5,"CC(C)C1=C2[C@H]3CC[C@@H]4[C@@]5(C)CC[C@H](OC(=O)CC(C)(C)C(=O)O)C(C)(C)[C@@H]5CC[C@@]4(C)[C@]3(C)CC[C@@]2([C@@H](CNCc2ccc(Cl)cc2)OC(=O)CC(C)(C)C(=O)O)CC1=O [Example 3, 4-[(1S)-1-[(1R,2R,5R,10S,13R,14R, 17S,19R)-17-[(3-carboxy-3,3-dimethylpropanoyl)oxy]-1,2,14,18,18-pentamethyl-7-oxo-8-(propan-2-yl)pentacyclo[11.8.0.0^ {2,10}.0^{5,9}.0^{14,19}]henicos-8-en-5-yl]-2-{[(4-chlorophenyl)methyl]amino}ethoxy]-2,2-dimethyl-4-oxobutanoic acid]",7.21
6,"CC(C)C1=C2[C@H]3CC[C@@H]4[C@@]5(C)CC[C@H](OC(=O)CC(C)(C)C(=O)O)C(C)(C)[C@@H]5CC[C@@]4(C)[C@]3(C)CC[C@@]2(CCNCc2ccc(Cl)cc2)CC1=O [Example 5, 4-(((3aR,5aR,5bR,7aR,9S,11aR,11bR,13aS)-3a-(2-((4-Chlorobenzyl)amino)ethyl)-1-isopropyl-5a,5b,8,8,11a-pentamethyl-2-oxo-3,3a,4,5,5a,5b,6,7,7a,8,9,10,11,11a,11b,12,13,13a-octadecahydro-2H-cyclopenta[a]chrysen-9-yl)oxy)-2,2-dimethyl-4-oxobutanoic acid]",8.59
7,"CC(C)C1=C2[C@H]3CC[C@@H]4[C@@]5(C)CC[C@H](OC(=O)CC(C)(C)C(=O)O)C(C)(C)[C@@H]5CC[C@@]4(C)[C@]3(C)CC[C@@]2(CCNCc2cccc(Cl)c2F)CC1=O [Example 8, 4-(((3aR,5aR,5bR,7aR,9S,11aR,11bR,13aS)-3a-(2-((3-Chloro-2-fluorobenzyl)amino)ethyl)-1-isopropyl-5a,5b,8,8,11a-pentamethyl-2-oxo-3,3a,4,5,5a,5b,6,7,7a,8,9,10,11,11a,11b,12,13,13a-octadecahydro-2H-cyclopenta[a]chrysen-9-yl)oxy)-2,2-dimethyl-4-oxobutanoic acid]",8.23
8,"CC(C)C1=C2[C@H]3CC[C@@H]4[C@@]5(C)CC[C@H](OC(=O)CC(C)(C)C(=O)O)C(C)(C)[C@@H]5CC[C@@]4(C)[C@]3(C)CC[C@@]2(CCNC2(c3ccc(Cl)cc3)CC2)CC1=O [Example 9, 4-(((3aR,5aR,5bR,7aR,9S,11aR,11bR,13aS)-3a-(2-((1-(4-chlorophenyl)cyclopropyl)amino)ethyl)-1-isopropyl-5a,5b,8,8,11a-pentamethyl-2-oxo-3,3a,4,5,5a,5b,6,7,7a,8,9,10,11,11a,11b,12,13,13a-octadecahydro-2H-cyclopenta[a]chrysen-9-yl)oxy)-2,2-dimethyl-4-oxobutanoic acid]",7.91
